Test results as given in patent US12655142B2 (Merck Patent GmbH, priority 2019, dated 2026).

What was measured:
[1] = target: T1, c-Kit(V654A) (Homo sapiens, UniProt P10721, V654A); test: c-Kit(V654A) assay (33P-ATP filter binding kinase assay); format: biochemical; conditions: recombinant human c-Kit aa 544-end V654A, ATP 200 μM
T1 construct: recombinant human c-Kit, amino acids 544-end containing the V654A mutation; GST (N)
Procedure, shortened: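 Radiometric filter-binding read-out: substrate 33P incorporation counted by scintillation after P30 filtermat washes in 75 mM phosphoric acid and methanol. Enzyme: N-GST recombinant human c-Kit aa 544-end carrying V654A.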

[2] = Determination of Efflux-Ratio (ER) in Caco-2 cells; conditions: human, Caco-2, pH 7.4
[3] = target: T2, GIST430/654 cell line expressing mutated constitutively active cKIT receptor tyrosine kinase (Δ560-576 deletion and V654A point mutation) (Homo sapiens, UniProt P10721, DEL560-576/V654A); test: Cellular cKIT autophosphorylation (phospho-Y307-cKIT, Luminex bead assay) in GIST430/654 cells; format: cell-based; conditions: compounds 45 min, read-out: GIST 430/654 IC50
T2 construct: endogenous in cells; host or cells: GIST430/654 cells
Procedure, shortened: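 Phospho-Y307 cKIT in lysates was measured on a Luminex bead assay, with total-cKIT capture overnight at 4 °C and phosphospecific plus PE secondary detection. Cells had 45 min exposure to a compound dilution series the day after plating: GIST430 (Δ560-576) or GIST430/654 (Δ560-576/V654A, grown with 100 nM imatinib). IC50 values are relative to 0.3% DMSO-treated cells.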

T1 sequence (P10721 544-976 V654A): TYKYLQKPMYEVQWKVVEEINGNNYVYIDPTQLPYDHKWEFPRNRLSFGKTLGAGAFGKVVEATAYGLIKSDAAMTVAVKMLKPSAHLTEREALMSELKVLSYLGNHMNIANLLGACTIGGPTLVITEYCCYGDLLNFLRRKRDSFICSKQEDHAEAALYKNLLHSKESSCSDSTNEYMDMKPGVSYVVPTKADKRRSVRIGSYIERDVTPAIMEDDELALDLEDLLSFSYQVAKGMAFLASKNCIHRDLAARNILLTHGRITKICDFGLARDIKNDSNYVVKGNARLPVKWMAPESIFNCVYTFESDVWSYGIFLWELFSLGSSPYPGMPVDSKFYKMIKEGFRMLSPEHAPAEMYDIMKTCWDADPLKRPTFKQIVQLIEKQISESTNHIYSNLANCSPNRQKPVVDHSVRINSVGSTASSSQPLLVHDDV
T2 sequence (P10721 with tags, fused parts or gaps DEL560-576/V654A): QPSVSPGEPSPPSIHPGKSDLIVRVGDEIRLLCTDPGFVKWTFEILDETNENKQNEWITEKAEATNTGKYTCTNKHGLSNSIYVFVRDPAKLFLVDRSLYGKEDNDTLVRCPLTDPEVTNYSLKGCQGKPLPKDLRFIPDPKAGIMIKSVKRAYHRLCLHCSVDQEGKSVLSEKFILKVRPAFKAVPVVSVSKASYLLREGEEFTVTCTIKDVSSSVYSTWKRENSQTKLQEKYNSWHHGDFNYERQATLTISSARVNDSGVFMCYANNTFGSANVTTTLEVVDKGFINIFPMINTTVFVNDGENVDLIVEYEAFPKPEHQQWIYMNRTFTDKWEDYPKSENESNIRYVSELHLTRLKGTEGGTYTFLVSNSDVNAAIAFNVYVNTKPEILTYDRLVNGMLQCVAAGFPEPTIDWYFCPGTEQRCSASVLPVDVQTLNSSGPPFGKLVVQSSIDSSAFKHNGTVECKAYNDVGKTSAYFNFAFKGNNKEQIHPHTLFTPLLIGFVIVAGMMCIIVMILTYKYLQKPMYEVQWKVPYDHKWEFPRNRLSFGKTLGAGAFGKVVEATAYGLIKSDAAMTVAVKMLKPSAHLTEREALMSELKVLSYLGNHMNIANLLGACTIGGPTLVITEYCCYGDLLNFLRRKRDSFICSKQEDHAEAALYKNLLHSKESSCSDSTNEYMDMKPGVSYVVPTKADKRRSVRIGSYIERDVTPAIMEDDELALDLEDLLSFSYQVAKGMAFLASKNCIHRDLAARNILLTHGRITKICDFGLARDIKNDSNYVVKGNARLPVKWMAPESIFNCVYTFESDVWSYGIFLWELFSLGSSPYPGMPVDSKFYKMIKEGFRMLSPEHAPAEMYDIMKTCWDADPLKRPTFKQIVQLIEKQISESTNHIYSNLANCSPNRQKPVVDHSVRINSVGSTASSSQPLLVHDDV

IC50 [1] [nM] | efflux ratio at 2 h, 1 μM [2] | IC50 [3] [nM] | SMILES
9.4 | < 15 | 71 | COCCn1cc(-c2ccc(CNc3cc(-c4cnc5cc(OC)ccn45)ncn3)cc2)cn1 [A19, {4-[1-(2-methoxy-ethyl)-1H-pyrazol-4-yl]-benzyl}-[6-(7-methoxy-imidazo[1,2-a]pyridin-3-yl)-pyrimidin-4-yl]-amine]
21 | < 15 | 180 | Cn1cc(-c2ccc(CNc3cc(-c4cnc5cc(OCCN6CCOC(F)(F)C6)ccn45)ncn3)cc2)cn1 [A214, (6-{7-[2-(2,2-difluoro-morpholin-4-yl)-ethoxy]-imidazo[1,2-a]pyridin-3-yl}-pyrimidin-4-yl)-[4-(1-methyl-1H-pyrazol-4-yl)-benzyl]-amine]
7.5 | < 15 | 69 | Cn1cc(-c2ccc(CNc3cc(-c4cnc5cc(OCCCO)ccn45)ncn3)cc2)cn1 [A131, 3-(3-{6-[4-(1-methyl-1H-pyrazol-4-yl)-benzylamino]-pyrimidin-4-yl}-imidazo[1,2-a]pyridin-7-yloxy)-propan-1-ol]
8.6 | < 15 | 76 | Cn1cc(-c2ccc(CNc3cc(-c4cnc5cc(OCC(C)(C)CN6CCCC6)ccn45)ncn3)cc2)cn1 [A91, {6-[7-(2,2-dimethyl-3-pyrrolidin-1-yl-propoxy)-imidazo[1,2-a]pyridin-3-yl]-pyrimidin-4-yl}-[4-(1-methyl-1H-pyrazol-4-yl)-benzyl]-amine]
13 | < 15 | 140 | COc1ccn2c(-c3cc(OCc4ccc(-c5cnn(C)c5)cc4)ncn3)cnc2c1 [A158, 7-methoxy-3-{6-[4-(1-methyl-1H-pyrazol-4-yl)-benzyloxy]-pyrimidin-4-yl}-imidazo[1,2-a]pyridine]
28 | < 15 | 67 | Cn1cc(-c2ccc(CNc3cc(-c4cnc5cc(OCC6CCN(CC(F)F)CC6)ccn45)ncn3)cc2)cn1 [A192, (6-{7-[1-(2,2-difluoro-ethyl)-piperidin-4-ylmethoxy]-imidazo[1,2-a]pyridin-3-yl}-pyrimidin-4-yl)-[4-(1-methyl-1H-pyrazol-4-yl)-benzyl]-amine]
8 | < 15 | 38 | Cn1cc(-c2ccc(CNc3cc(-c4cnc5cc(N6CC7(COC7)C6)ccn45)ncn3)cc2)cn1 [A246, [4-(1-methyl-1H-pyrazol-4-yl)-benzyl]-{6-[7-(2-oxa-6-aza-spiro[3.3]hept-6-yl)-imidazo[1,2-a]pyridin-3-yl]-pyrimidin-4-yl}-amine]
27 | < 15 | 190 | Cn1cc(-c2ccc(CNc3cc(-c4cnc5cc(OCCN6CCOCC(F)(F)C6)ccn45)ncn3)cc2)cn1 [A200, (6-{7-[2-(6,6-difluoro-[1,4]oxazepan-4-yl)-ethoxy]-imidazo[1,2-a]pyridin-3-yl}-pyrimidin-4-yl)-[4-(1-methyl-1H-pyrazol-4-yl)-benzyl]-amine]
10 | < 15 | 85 | Cn1cc(-c2ccc(CNc3cc(-c4cnc5cc(OCCN6CCO[C@@H]7COCC[C@@H]76)ccn45)ncn3)cc2)cn1 [A211, (6-{7-[(4aS,8aS)-2-(hexahydro-pyrano[3,4-b][1,4]oxazin-1-yl)-ethoxy]-imidazo[1,2-a]pyridin-3-yl}-pyrimidin-4-yl)-[4-(1-methyl-1H-pyrazol-4-yl)-benzyl]-amine]
10 | < 15 | 110 | CN(CC#N)CCOc1ccn2c(-c3cc(NCc4ccc(-c5cnn(C)c5)cc4)ncn3)cnc2c1 [A205, {methyl-[2-(3-{6-[4-(1-methyl-1H-pyrazol-4-yl)-benzylamino]-pyrimidin-4-yl}-imidazo[1,2-a]pyridin-7-yloxy)-ethyl]-amino}-acetonitrile]
15 | 15 to 50 | 250 | Cn1ncc(-c2ccc(CNc3cc(-c4cnc5cc(OCCCS(C)(=O)=O)ccn45)ncn3)cc2)n1 [A231, {6-[7-(3-methanesulfonyl-propoxy)-imidazo[1,2-a]pyridin-3-yl]-pyrimidin-4-yl}-[4-(2-methyl-2H-[1,2,3]triazol-4-yl)-benzyl]-amine]
87 | > 50 | 440 | CC(Nc1cc(-c2cnc3cc(OCCCN4CCC4)ccn23)ncn1)c1ccc(-c2cnn(C)c2)cc1 (stereo not drawn) [A249, {6-[7-(3-azetidin-1-yl-propoxy)-imidazo[1,2-a]pyridin-3-yl]-pyrimidin-4-yl}-{1-[4-(1-methyl-1H-pyrazol-4-yl)-phenyl]-ethyl}-amine]
110 | > 50 | 410 | CC(Nc1cc(-c2cnc3cc(OCCCN4CCCC4)ccn23)ncn1)c1ccc(-c2cnn(C)c2)cc1 (stereo not drawn) [A250, {1-[4-(1-methyl-1H-pyrazol-4-yl)-phenyl]-ethyl}-{6-[7-(3-pyrrolidin-1-yl-propoxy)-imidazo[1,2-a]pyridin-3-yl]-pyrimidin-4-yl}-amine]
21 | > 50 | 160 | CN1CC2(CN(CCOc3ccn4c(-c5cc(NCc6ccc(-c7cnn(C)c7)cc6)ncn5)cnc4c3)C2)OC1=O [A248, 7-methyl-2-[2-(3-{6-[4-(1-methyl-1H-pyrazol-4-yl)-benzylamino]-pyrimidin-4-yl}-imidazo[1,2-a]pyridin-7-yloxy)-ethyl]-5-oxa-2,7-diaza-spiro[3.4]octan-6-one]
6.4 | < 15 | 95 | COCCn1ncc(-c2ccc(CNc3cc(-c4cnc5cc(OC)ccn45)ncn3)cc2)n1 [A46, N-({4-[2-(2-methoxyethyl)-2H-1,2,3-triazol-4-yl]phenyl}methyl)-6-{7-methoxyimidazo[1,2-a]pyridin-3-yl}pyrimidin-4-amine]
4.8 | < 15 | 58 | COc1ccn2c(-c3cc(NCc4ccc(-c5cnn(CC6CC6)c5)cc4)ncn3)cnc2c1 [A21, [4-(1-cyclopropylmethyl-1H-pyrazol-4-yl)-benzyl]-[6-(7-methoxy-imidazo[1,2-a]pyridin-3-yl)-pyrimidin-4-yl]-amine]
17 | < 15 | 200 | Cn1cc(-c2ccc(CNc3cc(-c4cnc5cc(OCCN6CCC(F)(F)CC6)ccn45)ncn3)cc2)cn1 [A202, (6-{7-[2-(4,4-difluoro-piperidin-1-yl)-ethoxy]-imidazo[1,2-a]pyridin-3-yl}-pyrimidin-4-yl)-[4-(1-methyl-1H-pyrazol-4-yl)-benzyl]-amine]
9.7 | < 15 | 72 | Cn1cc(-c2ccc(CNc3cc(-c4cnc5cc(OCCN6Cc7ccncc7C6)ccn45)ncn3)cc2)cn1 [A195, (6-{7-[2-(1,3-dihydro-pyrrolo[3,4-c]pyridin-2-yl)-ethoxy]-imidazo[1,2-a]pyridin-3-yl}-pyrimidin-4-yl)-[4-(1-methyl-1H-pyrazol-4-yl)-benzyl]-amine]
11 | < 15 | 46 | Cn1cc(-c2ccc(CNc3cc(-c4cnc5cc(OCCN6CCN(C7COC7)CC6)ccn45)ncn3)cc2)cn1 [A65, [4-(1-methyl-1H-pyrazol-4-yl)-benzyl]-(6-{7-[2-(4-oxetan-3-yl-piperazin-1-yl)-ethoxy]-imidazo[1,2-a]pyridin-3-yl}-pyrimidin-4-yl)-amine]
2 | > 50 | 57 | Cn1ncc(-c2ccc(CNc3cc(-c4cnc5cc(OCC6CCNCC6)ccn45)ncn3)cc2)n1 [A165]
7 | < 15 | 80 | Cn1ncc(-c2ccc(CNc3cc(-c4cnc5cc(OCC6CCN(C7CC7)CC6)ccn45)ncn3)cc2)n1 [A186, {6-[7-(1-cyclopropyl-piperidin-4-ylmethoxy)-imidazo[1,2-a]pyridin-3-yl]-pyrimidin-4-yl}-[4-(2-methyl-2H-[1,2,3]triazol-4-yl)-benzyl]-amine]
3.1 | > 50 | 24 | Cn1ncc(-c2ccc(CNc3cc(-c4cnc5cc(N6CCC(CCO)C6)ccn45)ncn3)cc2)n1 (stereo not drawn) [A179, 2-[1-(3-{6-[4-(2-methyl-2H-[1,2,3]triazol-4-yl)-benzylamino]-pyrimidin-4-yl}-imidazo[1,2-a]pyridin-7-yl)-pyrrolidin-3-yl]-ethanol]
15 | < 15 | 100 | Cn1cc(-c2ccc(CNc3cc(-c4cnc5cc(OCCn6cccn6)ccn45)ncn3)cc2)cn1 [A255, N-{[4-(1-methyl-1H-pyrazol-4-yl)phenyl]methyl}-6-{7-[2-(1H-pyrazol-1-yl)ethoxy]imidazo[1,2-a]pyridin-3-yl}pyrimidin-4-amine]

SMILES | IC50 [1] [nM] | efflux ratio at 2 h, 1 μM [2] | IC50 [3] [nM]
Cn1cc(-c2ccc(CNc3cc(-c4cnc5cc(OCCC(C)(C)N)ccn45)ncn3)cc2)cn1 [A223, {6-[7-(3-amino-3-methyl-butoxy)-imidazo[1,2-a]pyridin-3-yl]-pyrimidin-4-yl}-[4-(1-methyl-1H-pyrazol-4-yl)-benzyl]-amine] | 11 | > 50 | 190
